Patent US12569534B2, “Therapeutic nanoparticles by coacervate complexation and their use for treating bacteria” (priority 2018, dated 2026)

Legend:
K. pneumoniae = assay: MIC/MBC broth microdilution, Example 1; assay type: cell-based, Klebsiella pneumoniae; settings: Example 1 CS NPs
Method: (§1) To evaluate antibacterial efficacy of the CS NPs, their minimum inhibitory concentration (MIC) and minimum bactericidal concentration (MBC) were assessed against 5 reference bacterial strains and 39 clinical isolates of carbapenem-resistant A. baumannii, P. aeruginosa, E. coli, and K. pneumoniae.
(§2) Reference bacterial stains were purchased from ATCC. Clinical isolates of carbapenem-resistant bacteria were obtained from National Health Research Institutes (NHRI) and Tri-Service General Hospital (TSGH). MIC is defined as the lowest concentration of antibiotics required to inhibit the growth of bacteria. MBC is defined as the lowest concentration of antibiotics required to eradicate microorganisms. The MICs of CS and the CS NPs were determined using a broth microdilution method. Bacterial suspensions were adjusted to a turbidity of McFarland 0.5±0.05 and cultured overnight with different concentrations of CS or CS NPs. A control group without antimicrobial treatment was prepared as a reference. Following overnight incubation, solution turbidity was determined by visual inspection. Culture wells with no observable turbidity were further sub-cultured for MBC evaluation. Solutions from the clear wells were deposited onto an agar plate and cultured overnight to determine the MBCs.

[1] = Maximum tolerated dose, intravenous; settings: BALB/c mice, tail vein, Example 1 study
Description: See e,g., Li et al, International Journal of Pharmaceutics, 2016, 515, 20-29; and Barnett et al., British Journal of Pharmacology and Chemotherapy, 1964, 23, 552-574. The highest dosage at which all examined subjects remained alive was defined as the MTD.
For this study, mice (8 weeks, Balb/c mice) were obtained from Bio-LASCO Taiwan Co., Ltd (Taipei, Taiwan). […] The highest dosage at which all examined subjects remained alive was defined as the MTD.

A. baumannii 17978 = assay: Murine model of A. baumannii pneumonia, survival; assay type: in vivo; settings: C57BL/6 mice, 5 mg/kg i.v. twice a day
Method: Briefly, A. baumannii 17978 were grown in 30 mL LB broth under shaking at 37° C. to reach the mid-logarithmic phase. The bacteria were then pelleted by centrifugation at 4,000 g for 15 minutes. The bacteria pellet was resuspended in PBS and mixed with 5% mucin derived from porcine stomach (type 3; Sigma-Aldrich, Taiwan).
To induce A. baumannii pneumonia, 8-week-old C57BL/6 mice (National Laboratory Animal Center, Taiwan) were first anesthetized with 2% tribromoethanol (Avertin; 0.018 mL/g). 6.07×10^8 CFU of A. baumannii 17978 were then administered to the mice via intra-tracheal injection to induce pneumonia (FIG. 4A). At 2 hours post-inoculation, the mice were treated twice a day with PBS (as the control), CS, or CS NPs at 5 mg/kg via intravenous injections.
The efficacy between CS and the CS NPs was compared by survival analysis. The difference in survival among the groups was analyzed by a Log-rank test using GraphPad Prism. Treatment efficacy of CS and CS NPs was observed 36 hour post-infection as no mortality was recorded in either of the two drug treatment groups whereas 37.5% of the control group animals were deceased. […] The survival outcome supports retention of CS's antimicrobial activity following nanoparticle assembly.

E. coli = assay: MIC/MBC broth microdilution, Example 2; assay type: cell-based; settings: Example 2 CS NPs
Method: as §2
To evaluate the antibacterial efficacy of the CS NPs of this study, their MIC and MBC were assessed against 5 reference bacterial strains and 20 clinical isolates of carbapenem-resistant A. baumannii, E. coli, K. pneumoniae, and P. aeruginosa according to the procedures set forth in EXAMPLE 1. Reference bacterial stains were purchased from ATCC. Carbapenem-resistant clinical isolated were obtained from NHRI.

A. baumannii = assay: MIC/MBC broth microdilution, Example 1; assay type: cell-based, Acinetobacter baumannii; settings: Example 1 CS NPs
Method: as §1, §2

[2] = clinical carbapenem-resistant K. pneumoniae NHRI 1
[3] = clinical carbapenem-resistant K. pneumoniae NHRI 2
[4] = clinical carbapenem-resistant K. pneumoniae NHRI 4
[5] = clinical carbapenem-resistant K. pneumoniae NHRI 5
[6] = clinical carbapenem-resistant K. pneumoniae TSGH 1
[7] = clinical carbapenem-resistant K. pneumoniae TSGH 3
[8] = clinical carbapenem-resistant K. pneumoniae TSGH 5
[9] = clinical carbapenem-resistant K. pneumoniae TSGH 7
[10] = clinical carbapenem-resistant K. pneumoniae TSGH 9
[11] = clinical carbapenem-resistant K. pneumoniae TSGH 11
[12] = clinical carbapenem-resistant K. pneumoniae TSGH 13
[13] = clinical carbapenem-resistant K. pneumoniae TSGH 15
[14] = clinical carbapenem-resistant K. pneumoniae TSGH 16
[15] = clinical carbapenem-resistant K. pneumoniae TSGH 17
[16] = clinical carbapenem-resistant K. pneumoniae TSGH 18
[17] = clinical carbapenem-resistant K. pneumoniae TSGH 19
[18] = clinical carbapenem-resistant isolate E. coli NHRI 1
[19] = clinical carbapenem-resistant isolate E. coli NHRI 2
[20] = clinical carbapenem-resistant isolate E. coli NHRI 3
[21] = clinical carbapenem-resistant isolate E. coli NHRI 4
[22] = clinical carbapenem-resistant isolate E. coli NHRI 5
[23] = clinical carbapenem-resistant A. baumannii NHRI 1
[24] = clinical carbapenem-resistant A. baumannii NHRI 2
[25] = clinical carbapenem-resistant A. baumannii NHRI 3
[26] = clinical carbapenem-resistant A. baumannii NHRI 4
[27] = clinical carbapenem-resistant A. baumannii NHRI 5
[28] = reference strain A. baumannii 15151
[29] = reference strain A. baumannii 17978
[30] = reference strain A. baumannii 19606

**Q.** Which MBC (K. pneumoniae; [2]) does the source give for colistin [CS] here?
**A.** The MBC was 4 µg/mL.

**Q.** And the MIC (K. pneumoniae; [2])?
**A.** Its MIC is 2 µg/mL.

**Q.** And the MBC (K. pneumoniae; [3])?
**A.** Its MBC is 2 µg/mL.

**Q.** What about the MIC (K. pneumoniae; [3]) of the same substance?
**A.** The MIC was 2 µg/mL.

**Q.** And the MBC (K. pneumoniae; [4])?
**A.** Its MBC is 2 µg/mL.

**Q.** What about the MIC (K. pneumoniae; [4]) of the same substance?
**A.** The MIC was 2 µg/mL.

**Q.** And the MBC (K. pneumoniae; [5])?
**A.** The MBC was 2 µg/mL.

**Q.** What about the MIC (K. pneumoniae; [5]) of the same substance?
**A.** The MIC was 2 µg/mL.

**Q.** What about the MBC (K. pneumoniae; [6]) of the same substance?
**A.** Its MBC is 2 µg/mL.

**Q.** And the MIC (K. pneumoniae; [6])?
**A.** The MIC was 2 µg/mL.

**Q.** What about the MBC (K. pneumoniae; [7]) of the same substance?
**A.** Its MBC is 1 µg/mL.

**Q.** And the MIC (K. pneumoniae; [7])?
**A.** Its MIC is 1 µg/mL.

**Q.** What about the MBC (K. pneumoniae; [8]) of the same substance?
**A.** Its MBC is 1 µg/mL.

**Q.** What about the MIC (K. pneumoniae; [8]) of the same substance?
**A.** Its MIC is 1 µg/mL.

**Q.** What about the MBC (K. pneumoniae; [9]) of the same substance?
**A.** Its MBC is 1 µg/mL.

**Q.** What about the MIC (K. pneumoniae; [9]) of the same substance?
**A.** Its MIC is 1 µg/mL.

**Q.** And the MBC (K. pneumoniae; [10])?
**A.** The MBC was 2 µg/mL.

**Q.** And the MIC (K. pneumoniae; [10])?
**A.** The MIC was 1 µg/mL.

**Q.** And the MBC (K. pneumoniae; [11])?
**A.** Its MBC is 4 µg/mL.

**Q.** And the MIC (K. pneumoniae; [11])?
**A.** The MIC was 4 µg/mL.

**Q.** What about the MBC (K. pneumoniae; [12]) of the same substance?
**A.** The MBC was 2 µg/mL.

**Q.** What about the MIC (K. pneumoniae; [12]) of the same substance?
**A.** The MIC was 1 µg/mL.

**Q.** What about the MBC (K. pneumoniae; [13]) of the same substance?
**A.** The MBC was 1 µg/mL.

**Q.** And the MIC (K. pneumoniae; [13])?
**A.** Its MIC is 1 µg/mL.

**Q.** What about the MBC (K. pneumoniae; [14]) of the same substance?
**A.** Its MBC is 2 µg/mL.

**Q.** And the MIC (K. pneumoniae; [14])?
**A.** The MIC was 2 µg/mL.

**Q.** What about the MBC (K. pneumoniae; [15]) of the same substance?
**A.** Its MBC is 1 µg/mL.

**Q.** What about the MIC (K. pneumoniae; [15]) of the same substance?
**A.** Its MIC is 1 µg/mL.

**Q.** What about the MBC (K. pneumoniae; [16]) of the same substance?
**A.** Its MBC is 1 µg/mL.

**Q.** And the MIC (K. pneumoniae; [16])?
**A.** The MIC was 1 µg/mL.

**Q.** And the MBC (K. pneumoniae; [17])?
**A.** The MBC was 4 µg/mL.

**Q.** And the MIC (K. pneumoniae; [17])?
**A.** Its MIC is 1 µg/mL.

**Q.** What about the MTD [1] of the same substance?
**A.** The MTD was 10 mg/kg.

**Q.** What about the mortality (A. baumannii 17978; 36 hour post-infection) of the same substance?
**A.** The mortality was “no mortality”.

**Q.** And the “surviving mice out of 8 assessed animals” value (A. baumannii 17978; 72 hours of observation)?
**A.** The value was 4.

**Q.** What about the MBC (E. coli; [18]) of the same substance?
**A.** Its MBC is 2 µg/mL.

**Q.** What about the MIC (E. coli; [18]) of the same substance?
**A.** The MIC was 2 µg/mL.

**Q.** What about the MBC (E. coli; [19]) of the same substance?
**A.** The MBC was 2 µg/mL.

**Q.** And the MIC (E. coli; [19])?
**A.** The MIC was 1 µg/mL.

**Q.** What about the MBC (E. coli; [20]) of the same substance?
**A.** The MBC was 2 µg/mL.

**Q.** And the MIC (E. coli; [20])?
**A.** Its MIC is 1 µg/mL.

**Q.** What about the MBC (E. coli; [21]) of the same substance?
**A.** The MBC was 1 µg/mL.

**Q.** And the MIC (E. coli; [21])?
**A.** The MIC was 1 µg/mL.

**Q.** What about the MBC (E. coli; [22]) of the same substance?
**A.** The MBC was 0.5 µg/mL.

**Q.** And the MIC (E. coli; [22])?
**A.** The MIC was 0.5 µg/mL.

**Q.** What about the MBC (E. coli; reference strain E. coli 25922) of the same substance?
**A.** The MBC was 2 µg/mL.

**Q.** And the MIC (E. coli; reference strain E. coli 25922)?
**A.** Its MIC is 1 µg/mL.

**Q.** What about the MBC (A. baumannii; [23]) of the same substance?
**A.** Its MBC is 2 µg/mL.

**Q.** What about the MIC (A. baumannii; [23]) of the same substance?
**A.** Its MIC is 1 µg/mL.

**Q.** And the MBC (A. baumannii; [24])?
**A.** Its MBC is 2 µg/mL.

**Q.** And the MIC (A. baumannii; [24])?
**A.** The MIC was 1 µg/mL.

**Q.** And the MBC (A. baumannii; [25])?
**A.** The MBC was 1 µg/mL.

**Q.** What about the MIC (A. baumannii; [25]) of the same substance?
**A.** The MIC was 1 µg/mL.

**Q.** What about the MBC (A. baumannii; [26]) of the same substance?
**A.** Its MBC is 2 µg/mL.

**Q.** What about the MIC (A. baumannii; [26]) of the same substance?
**A.** Its MIC is 1 µg/mL.

**Q.** And the MBC (A. baumannii; [27])?
**A.** The MBC was 1 µg/mL.

**Q.** And the MIC (A. baumannii; [27])?
**A.** The MIC was 1 µg/mL.

**Q.** And the MBC (A. baumannii; [28])?
**A.** Its MBC is 1 µg/mL.

**Q.** And the MIC (A. baumannii; [28])?
**A.** The MIC was 1 µg/mL.

**Q.** What about the MBC (A. baumannii; [29]) of the same substance?
**A.** The MBC was 1 µg/mL.

**Q.** And the MIC (A. baumannii; [29])?
**A.** Its MIC is 1 µg/mL.

**Q.** What about the MBC (A. baumannii; [30]) of the same substance?
**A.** Its MBC is 1 µg/mL.

**Q.** What about the MIC (A. baumannii; [30]) of the same substance?
**A.** The MIC was 1 µg/mL.
